From patent publication US8450479B2, “3-substituted-4-oxo-3,4-dihydro-imidazo[5,1-d][1,2,3,5-tetrazine-8-carboxylic acid amides and their use” (Pharminox Limited, priority 2007, dated 2013)
Where “and” joins values, the source holds several entries; their conditions need not be identical. Equal values may be shown once. Where a name gives a salt, the structure may show the parent alone. Read-outs that look alike come from different tables or passages of the source.

Assays:
Assay in all cases: MTT assay for 7-day toxicity assay
Format in all cases: cell-based
[1] = system: Glioma SNB19V (MGMT−); settings: for GI50: Glioma SNB19V (MGMT−)
Procedure: (§1) The cell culture techniques were carried out in a Class II microbiological safety cabinet which was swabbed with 70% IMS in distilled water before each use. […] MRC-5 cells were cultured in EMEM. Cells were grown in a humidified incubator containing 5% CO2 at 37° C. Cells were sub-cultured when growth exceeded approximately 80% confluence, normally twice weekly. The medium was aspirated from the flask and approximately 0.8 mL trypsin-EDTA 1× solution added. The cells were re-incubated at 37° C. until they visibly detached from the flask. The cell suspension was then re-suspended in 5 mL medium and 0.5-1 mL of the cell suspension was transferred to a new flask (25 cm^2) with 7 mL culture medium. The cells were further incubated at 37° C. incubator. Cells were disposed after passage nearly 30 times in order to minimize phenotypic drift. New batches of cells were taken from liquid nitrogen storage by thawing rapidly (37° C. water bath) and re-suspension in a 25 cm^2 flask with 10 mL of culture medium. Two passages were allowed to resume normal growth. For long-term maintenance, viable cells at 60-80% confluence were detached by minimum amount of trypsin/EDTA and re-suspended in sterile filtered freezing medium (95% FBS, 5% DMSO), transferred to sterile cryogenic vials, and frozen overnight at −20° C. followed by −80° C. for 1-2 days and stored in liquid nitrogen for long term storage.
(§2) Most test compounds, including temozolomide, were prepared as stock solution (100 mM) in DMSO and stored at −20° C. for not more than 6 months.
(§3) Glioma cell lines, SNB19 and U373, both MGMT transfected (i.e., SNB19M and U373M) and vector controls (i.e., SNB19V and U373V); colorectal carcinoma cell lines, HCT116, HT29, and DLD1; melanoma cell line, SKMEL-28; breast cell line, MCF-7; and normal human fetal lung fibroblast cell line, MRC-5; were harvested at 60-80% confluence—during the logarithmic phase of growth.
(§4) Following harvesting, cells in suspension were gently syringed through a 23 gauge needle to obtain a near-single cell suspension. The desired cell seeding densities were used and added into 96-well plates in 180 μL culture medium if only one test compound was to be added, or 160 μL if two test compounds were to be added in combination, which were allowed to attach at 37° C. (5% CO2) overnight. For the 7 day assay, the cell seeding density for different cell lines was as follows: SNB19V, SNB19M: 650 cells/well; U373V, U373M: 650 cells/well; SNB19VR, U373VR: 650 cells/well; HCT116, DLD-1, SKMEL-28, MRC-5, MCF-7: 400 cells/well.
(§5) The two peripheral lanes were used as blank wells (cell free) and filled with 200 μL of medium in order to minimise medium evaporation from the plate. A separate time zero (T0) plate was set up alongside other plates. Serial dilutions in tissue culture medium of a 100 mM stock of test compound in DMSO were prepared immediately before each assay to ten times the final concentrations required, and then 20 μL was added to each well (200 μL total media per well) to achieve final concentrations of 0.5 μM, 1 μM, 5 μM, 10 μM, 50 μM, 100 μM, 500 μM, and 1000 μM. A minimum of four wells received the same test compound concentration. To control wells, including those in the T0 plate, 20 μL of medium was added. […] A separate plate treated in the same way, but free of test compound, was used as a measure of cell viability at the time of drug addition (day 0).
(§6) After incubation at 37° C., 5% CO2 for 7 days (or immediately for the day 0 plate), cell viability was quantified using the MTT assay. 50 μL of sterile filtered MIT (3-(4,5-dimethylthiazol-2-yl)-2,5-diphenyltetrazolium bromide) (2 mg/mL in phosphate buffered saline) were added to each well (final concentration 0.4 mg/mL) and the plates were re-incubated for 4 hours to allow metabolic conversion of MTT by dehydrogenases in viable cells to insoluble formazan crystals.
(§7) The intensity of absorbance is directly proportional to cell viability.

[2] = system: Glioma SNB19M (MGMT+); settings: for GI50: Glioma SNB19M (MGMT+)
Procedure: as §1, §2, §3, §4, §5, §6, §7

[3] = system: Glioma U373M (MGMT+); settings: Glioma U373M (MGMT+), 7-day MTT, single determinations, read-out: GI50
Procedure: as §1, §2, §3, §4, §5, §6, §7

[4] = system: Glioma U373V (MGMT low); settings: Glioma U373V (MGMT low)
Procedure: as §1, §2, §3, §4, §5, §6, §7

[5] = 168 h, 7-day MTT, single determinations, read-out: GI50
[6] = 7-day MTT, single determinations, read-out: GI50

SMILES	GI50 [1, 5] [µM]	GI50 [1, 6]	GI50 [2, 5] [µM]	GI50 [2, 6]	GI50 ([3]; 168 h) [µM]	GI50 [3]	GI50 [4, 5] [µM]	GI50 [4, 6]	further results
CC(c1ccc(Br)cc1)n1nnc2c(C(N)=O)ncn2c1=O (racemic) [BB-005, (+/−) 3-(-1-(4-Bromophenyl)ethyl)-8-carbamoylimidazotetrazin-4-one]	42	80.2 µM and 81 µM and 70.2 µM	–	–	–	–	–	–	–
COc1ccc(Cn2nnc3c(C(N)=O)ncn3c2=O)cc1OC [AA-005, 3-(3,4-dimethoxybenzyl)-4-oxo-3,4-dihydroimidazo[5,1-d][1,2,3,5]tetrazine-8-carboxamide]	218	114 µM	282	232 µM	301	224 µM	197	259 µM	–
COc1ccc([C@@H](C)n2nnc3c(C(N)=O)ncn3c2=O)cc1 [BB-003, (R)-3-(−1-(4-Methoxyphenyl)ethyl)-8-carbamoylimidazotetrazin-4-one]	55.8	93.7 µM	72.3	97.1 µM	–	–	71	138 µM	–
NC(=O)c1ncn2c(=O)n(Cc3ccsc3)nnc12 [CC-001, 4-oxo-3-(thiophen-3-ylmethyl)-3,4-dihydroimidazo[5,1-d][1,2,3,5]tetrazine-8-carboxamide]	79.6	117 µM	208	135 µM	198	232 µM	206	160 µM	–
NC(=O)c1ncn2c(=O)n(Cc3cccs3)nnc12 [CC-002, 4-oxo-3-(thiophen-2-ylmethyl)-3,4-dihydroimidazo[5,1-d][1,2,3,5]tetrazine-8-carboxamide]	76.7	52 µM	63.6	54.7 µM	96.8	52.2 µM	149	81.4 µM	–
Cc1noc(Cn2nnc3c(C(N)=O)ncn3c2=O)n1 [CC-003, 3-(3-Methyl-[1,2,4]oxadiazol-5-ylmethyl)-4-oxo-3,4-dihydro-imidazo[5,1-d][1,2,3,5]tetrazine-8-carboxylic acid amide]	208	176 µM	198	208 µM	196	391 µM	–	–	–
Cc1cc(Cn2nnc3c(C(N)=O)ncn3c2=O)on1 [CC-004, 3-(3-Methyl-isoxazol-5-ylmethyl)-4-oxo-3,4-dihydro-imidazo[5,1-d][1,2,3,5]tetrazine-8-carboxylic acid amide]	38	54.9 µM	–	–	29.3	–	–	–	–
NC(=O)c1ncn2c(=O)n(Cc3c[nH]nn3)nnc12 [CC-005, 4-Oxo-3-(1H-[1,2,3]triazol-4-ylmethyl)-3,4-dihydro-imidazo[5,1-d][1,2,3,5]tetrazine-8-carboxylic acid amide]	357	239 µM	257	409 µM	334	330 µM	261	400 µM	–
CC#CCn1nnc2c(C(N)=O)ncn2c1=O [EE-002, 3-But-2-ynyl-4-oxo-3,4-dihydro-imidazo[5,1-d][1,2,3,5]tetrazine-8-carboxylic acid amide]	33.5	45.8 µM	38.1	37.1 µM	41.1	25.1 µM	42.1	31.1 µM	–
C[Si](C)(C)C#CCn1nnc2c(C(N)=O)ncn2c1=O [EE-003, 4-Oxo-3-(3-trimethylsilanyl-prop-2-ynyl)-3,4-dihydro-imidazo[5,1-d][1,2,3,5]tetrazine-8-carboxylic acid amide]	41.7	36.6 µM	42.9	35.2 µM	31.5	30 µM	26.8	33.6 µM	–
NC(=O)c1ncn2c(=O)n(C3CCCC3)nnc12 [FF-001, 3-Cyclopentyl-8-carbamoylimidazotetrazin-4-one]	318	266 µM	292	238 µM	228	204 µM	169	163 µM	–
NC(=O)c1ncn2c(=O)n(C3CC3)nnc12 [FF-002, 3-Cyclopropyl-8-carbamoylimidazotetrazin-4-one]	516	376 µM and 392 µM	593	637 µM and 418 µM	369	346 µM and 367 µM	293	386 µM and 241 µM	–
NC(=O)c1ncn2c(=O)n(CC3CCCCC3)nnc12 [GG-001, 3-Cyclohexylmethyl-8-carbamoylimidazotetrazin-4-one]	–	–	831	445 µM	–	–	717	> 1000 µM	–
NC(=O)c1ncn2c(=O)n(CC3CC3)nnc12 [GG-003, 3-Cyclopropylmethyl-8-carbamoylimidazotetrazin-4-one]	–	–	152	293 µM	–	–	386	–	–
NC(=O)c1ncn2c(=O)n(C3CCNCC3)nnc12 [HH-001, 3-Piperidin-4-yl-8-carbamoylimidazotetrazin-4-one hydrobromide]	167	–	–	–	72	–	–	–	GI50 ([1]; 7-day MTT, single determinations, hydrobromide, read-out: GI50): 190 µM; GI50 ([3]; hydrobromide): 115 µM
NC(=O)CCn1nnc2c(C(N)=O)ncn2c1=O [JJ-004, 3-(8-Carbamoyl-oxoimidazo[5,1-d][1,2,3,5]tetrazin-3(4H)-yl)propanamide]	348	294 µM	417	281 µM	–	–	–	–	–
CC(C)(C)C(=O)OCn1nnc2c(C(N)=O)ncn2c1=O [LL-004, 2,2-Dimethyl-propionic acid 8-carbamoyl-4-oxo-imidazo[5,1-d][1,2,3,5]tetrazin-3-ylmethyl ester]	47.2	35.9 µM and 51.9 µM	–	–	–	–	–	–	–
CC(C)(C)OC(=O)Cn1nnc2c(C(N)=O)ncn2c1=O [LL-006, (8-Carbamoyl-4-oxo-imidazo[5,1-d][1,2,3,5]tetrazin-3-yl)-acetic acid tert-butyl ester]	–	–	–	–	–	–	–	–	GI50 ([2]; 168 h, 7-day MTT, single determinations): 64 µM; GI50 ([2]; 7-day MTT, single determinations): 60.5 µM and 87.2 µM
CCOP(=O)(Cn1nnc2c(C(N)=O)ncn2c1=O)OCC [VV-001, (8-Carbamoyl-4-oxo-imidazo[5,1-d][1,2,3,5]tetrazin-3-ylmethyl)-phosphonic acid diethyl ester]	–	–	–	–	–	–	–	–	GI50 [2]: 102 µM and 85.6 µM; activity compared with TMZ, in words ([2]; SNB19M glioma cell line): more active than TMZ; GI50 [1]: 73.6 µM and 63.4 µM; activity compared with TMZ, in words ([1]; SNB19V glioma cell line): more active than TMZ; GI50 [4]: 306 µM and 174 µM
